Common to all, as to type: ADME
A short description of data set [1]: Efficiency expressed as ratio of Vmax to that of Km was determined.
A short description of data set [2]: Kinetic parameter Vmax was determined.
Data set [3] is described as follows: Kinetic parameter Km was determined.

Our source for the Ratio, Vmax and Km values is ChEMBL document CHEMBL1135102, “2-Amino-7-deazaadenine forms stable base pairs with cytosine and thymine” (Bioorg Med Chem Lett, 2002).

A word on the Km: it is the substrate concentration at which the rate is half of its maximum. As to `Nc1ncnc2c1ncn2[C@H]1C[C@H](O)[C@@H](COP(=O)(O)OP(=O)(O)OP(=O)(O)O)O1`, in data set [1], the Ratio is reported as 0.0452. Also, the Vmax in data set [2] is 0.994 pmol/U/min. The Michaelis-Menten constant (Km) in data set [3] came to 22 µM.

As for `Nc1ccn([C@H]2C[C@H](O)[C@@H](COP(=O)(O)OP(=O)(O)OP(=O)(O)O)O2)c(=O)n1` [DEOXYCYTIDINE TRIPHOSPHATE], in data set [1], the Ratio amounted to 0.73. Also, the Vmax in data set [2] was found to be 18.7 pmol/U/min. Besides, the Michaelis constant (Km) in data set [3] was found to be 25.6 µM.

In the case of `Nc1nc2c(ncn2[C@H]2C[C@H](O)[C@@H](COP(=O)(O)OP(=O)(O)OP(=O)(O)O)O2)c(=O)[nH]1` [DEOXYGUANOSINE TRIPHOSPHATE], the Ratio in data set [1] amounted to 0.211. The Vmax in data set [2] is 13.1 pmol/U/min. For the same compound, the Km in data set [3] is 62 µM.
